Data on one molecule can be found in patent US20260209777A1, “TARGETING GLYCOSYLPHOSPHATIDYLINOSITOL (GPI) PATHWAY PROTEINS TO TREAT OVARIAN CANCER” (UNIVERSITY OF MASSACHUSETTS, priority 2023, published 2026).

For one assay, the target named is T1, GPAA1 (Homo sapiens, UniProt O43292).
T1 construct: endogenous in cells; host or cells: OVCAR8 human ovarian cancer cells (Creative Biolabs, Cat #IOC-ZP305)
T1 sequence (O43292 1-621): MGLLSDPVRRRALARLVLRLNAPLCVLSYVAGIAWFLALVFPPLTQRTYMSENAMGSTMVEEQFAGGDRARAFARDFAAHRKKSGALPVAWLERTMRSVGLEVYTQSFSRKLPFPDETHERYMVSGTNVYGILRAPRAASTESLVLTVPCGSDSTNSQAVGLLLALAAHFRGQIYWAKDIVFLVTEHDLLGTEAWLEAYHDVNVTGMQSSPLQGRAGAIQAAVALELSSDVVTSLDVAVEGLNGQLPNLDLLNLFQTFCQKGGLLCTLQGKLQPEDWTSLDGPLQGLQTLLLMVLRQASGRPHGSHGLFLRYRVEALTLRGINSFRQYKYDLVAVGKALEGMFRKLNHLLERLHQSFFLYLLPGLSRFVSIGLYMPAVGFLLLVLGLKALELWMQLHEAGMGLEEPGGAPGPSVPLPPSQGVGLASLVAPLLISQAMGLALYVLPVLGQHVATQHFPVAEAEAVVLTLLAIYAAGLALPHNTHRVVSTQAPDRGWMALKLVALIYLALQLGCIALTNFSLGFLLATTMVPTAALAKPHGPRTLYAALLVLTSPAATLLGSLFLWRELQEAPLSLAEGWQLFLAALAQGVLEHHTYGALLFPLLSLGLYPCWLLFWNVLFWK
Description: Cellular thermal stability shift assay (CETSA). The note with it: OVCAR8 cells, bestatin 100 μM for 2 hours, relative to DMSO (FIG. 6B). The class given is binding. How it is done:
CETSA: CETSA assays were performed as described previously (Jafari et al., Nat Protoc 2014, 9(9):2100-22). In brief, […] OVCAR8 cells were treated with DMSO or 100 μM bestatin for 2 hours. Cells (50 μl) were aliquoted in PCR tubes and incubated at room temperature (25° C.) or at a range of temperatures (37° C. to 65.2° C.) in a thermal cycler for 3 min and cooled to 4° C. Cells were lysed using Alpha SureFire Ultra Lysis Buffer (PerkinElmer, Cat #ASLU-LB) supplemented with Halt Protease Inhibitor Cocktail (ThermoFisher Scientific, Cat #78430). Insoluble proteins were separated by centrifugation at 15000×g for 30 mins at 4° C. Equal volumes of each sample were separated by SDS-PAGE and detected by immunoblotting blotting using an anti-GPAA1 polyclonal antibody (Invitrogen, Cat #PA5-100548). Three independent experiments were performed. Densitometry of the blots was performed using ImageJ software and the graph was plotted using GraphPad Prism 9.0.
Due to the predicted structural similarity between GPAA1 and M28-type metallopeptidases, we hypothesized that GPAA1 may be inhibited by bestatin and carried out a series of experiments to test this possibility. […] The ligand-bound proteins in the soluble fraction are analyzed by immunoblotting to quantify the changes in thermal stability.

The test system of a further assay is SKOV3 cells. Description: Cell viability assay (PrestoBlue) in SKOV3 cells. The class given is cell-based, human. The note with it: SKOV3, 5, 10 or 20 μM bestatin vs DMSO (FIG. 6F).
The next assay relates to OVCAR8-GFP-Luc cells. In words: Intraperitoneal OVCAR8 xenograft in NSG mice (bioluminescence imaging, ascites, in vivo phagocytosis). How it is done:
Animal Experiments: All mouse studies were performed in accordance with the Guide for the Care and Use of Laboratory Animals from NIH, and a protocol (202000157) approved by the UMass Chan Medical School Institutional Animal Care and Use Committee (IACUC). Female NSG mice (n=3 per group), 6-7 weeks of age, were injected intraperitoneally with 4×10^6 OVCAR8/EmGFP-luc cells or OVCAR8-ΔGPAA1/EmGFP-luc cells. Tumors were analyzed using bioluminescence imaging beginning 7 days post-engraftment and continuing every 7 days until day 28. Mice were injected intraperitoneally with firefly D-luciferin at 140 mg/kg in PBS and images were acquired 10 min after luciferin injection using an IVIS Spectrum (Perkin Elmer). Total flux was quantified using Living Image 4.0 software (IVIS Imaging Systems).
For macrophage depletion experiments, 200 μl of clodronate liposomes (Liposoma) was administered intraperitoneally every 4 days for 16 days before tumor implantation, followed by injection of 100 μl of clodronate liposomes every 4 days. Depletion of […] was verified by flow cytometry analysis peritoneal lavage using an APC anti-mouse F4/80 antibody (BioLegend, Cat #123116, clone BM8, 1:50 dilution).
[…] Tumors were analyzed by in vivo bioluminescence imaging as described above.
In vivo Phagocytosis Assay: An in vivo phagocytosis assay was performed as described previously (Barkal et al., Nature 2019, 572(7769):392-396). Mice were implanted with 4×10^6 OVCAR8/EmGFP-luc cells as described above and 7 days later bestatin (100 mg/kg) was administered daily by intraperitoneal injection. After 10 days of bestatin treatment, peritoneal ascites was harvested. Single-cell suspensions of ascitic cells were blocked using TruStain FcX (anti-mouse CD16/32 antibody (BioLegend, Cat #101320) for 10 min at room temperature and then stained with an APC anti-mouse F4/80 antibody (BioLegend, Cat #123116, clone BM8, 1:50 dilution) for 30 min on ice in the dark. The percentage of cells undergoing phagocytosis was calculated as the percentage of F4/80+ EmGFP+ double-positive cells in the population.

Turning to `CC(C)C[C@H](NC(=O)[C@@H](O)[C@H](N)Cc1ccccc1)C(=O)O` [bestatin], the “thermal stability of GPAA1” value on GPAA1 is recorded as “increased”. In addition, the cell viability entry with SKOV3 cells is reported as “no effect”. Besides, the “tumor growth (total flux, in vivo bioluminescence imaging)” value in the assay on OVCAR8-GFP-Luc cells (NSG mice, IP OVCAR8-GFP-Luc, bestatin 100 mg/kg/d IP vs vehicle (FIG. 10C)) was “significantly reduced”. In the assay on OVCAR8-GFP-Luc cells (bestatin 100 mg/kg daily IP, 10 days, vs vehicle (FIG. 10E)), the “GFP+F4/80+ double-positive cells in ascites (in vivo phagocytosis)” value is listed as “increase”. Besides, the ascites volume entry with OVCAR8-GFP-Luc cells (bestatin 100 mg/kg/d IP, 10 days of treatment, vs vehicle (FIG. 10D)) is listed as “significantly reduced”.
